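Protocol summary: plate cells (96-well), add compound at 5 concentrations, incubate 48 h, interpolate endpoints linearly. GI50 = concentration required for 50% inhibition of growth.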 Active and inactive are the calls of the source. Cut-off read from the data, not from the text of the source: active = GI50 up to about 1.1 µM and inactive = higher.
How the values were obtained:
Experiment in all cases: inhibition of tumour cell growth, NCI panel, 48 h
SN12C = tested on: SN12C
A549 = tested on: A549
OVCAR-8 = tested on: OVCAR-8
HOP-62 = tested on: HOP-62
SK-MEL-28 = tested on: SK-MEL-28
IGROV-1 = tested on: IGROV-1
NCI-H23 = tested on: NCI-H23
SW-620 = tested on: SW-620
A498 = tested on: A498
HT-29 = tested on: HT-29
NCI-H226 = tested on: NCI-H226
NCI-H522 = tested on: NCI-H522
NCI-H460 = tested on: NCI-H460
SK-MEL-2 = tested on: SK-MEL-2
SNB-19 = tested on: SNB-19
SNB-75 = tested on: SNB-75
UACC-62 = tested on: UACC-62
DMS-273 = tested on: DMS-273
HCC 2998 = tested on: HCC 2998
COLO 205 = tested on: COLO 205
OVCAR-3 = tested on: OVCAR-3
OVCAR-5 = tested on: OVCAR-5
Malme-3M = tested on: Malme-3M
U-251 = tested on: U-251
HCT-116 = tested on: HCT-116
LXFL 529 = tested on: LXFL 529
M19-MEL = tested on: M19-MEL
SF-295 = tested on: SF-295
M14 = tested on: M14
XF498 = tested on: XF498
SK-OV-3 = tested on: SK-OV-3
LOX IMVI = tested on: LOX IMVI
OVCAR-4 = tested on: OVCAR-4
K562 = tested on: K562
UO-31 = tested on: UO-31
RXF 393 = tested on: RXF 393
SNB-78 = tested on: SNB-78
CCRF-CEM = tested on: CCRF-CEM
HL-60 = tested on: HL-60
EKVX = tested on: EKVX
MOLT-4 = tested on: MOLT-4
RXF 631 = tested on: RXF 631
DMS-114 = tested on: DMS-114
TK-10 = tested on: TK-10
KM-20L2 = tested on: KM-20L2
UACC-257 = tested on: UACC-257
ACHN = tested on: ACHN
786-0 = tested on: 786-0
HOP-92 = tested on: HOP-92
DLD-1 = tested on: DLD-1
SK-MEL-5 = tested on: SK-MEL-5
CAKI-1 = tested on: CAKI-1
SF-539 = tested on: SF-539
KM12 = tested on: KM12
RPMI-8226 = tested on: RPMI-8226
HCT-15 = tested on: HCT-15
SF-268 = tested on: SF-268

In the case of N#C/C(=C\c1ccccc1O)C(N)=O, the GI50 (SN12C) was > 100 µM (inactive), the GI50 (A549) was > 100 µM (inactive) and the GI50 (OVCAR-8) was > 100 µM (inactive). The GI50 (HOP-62) was > 100 µM (inactive), the GI50 (SK-MEL-28) was > 100 µM (inactive) and the GI50 (IGROV-1) was > 100 µM (inactive). The GI50 (NCI-H23) was 82.4 µM (inactive), the GI50 (SW-620) was 76.2 µM (inactive) and the GI50 (A498) was > 100 µM (inactive). For the same molecule, the GI50 (HT-29) was 86.9 µM (inactive), the GI50 (NCI-H226) was 46.8 µM (inactive) and the GI50 (NCI-H522) was 21.9 µM (inactive). The GI50 (NCI-H460) was 55.7 µM (inactive), the GI50 (SK-MEL-2) was 62.1 µM (inactive) and the GI50 (SNB-19) was 71.8 µM (inactive). The GI50 (SNB-75) was 28.1 µM (inactive), the GI50 (UACC-62) was 50.1 µM (inactive) and the GI50 (DMS-273) was > 100 µM (inactive). For the same molecule, the GI50 (HCC 2998) was > 100 µM (inactive), the GI50 (COLO 205) was 61.8 µM (inactive) and the GI50 (OVCAR-3) was 48.5 µM (inactive). The GI50 (OVCAR-5) was > 100 µM (inactive), the GI50 (Malme-3M) was > 100 µM (inactive) and the GI50 (U-251) was > 100 µM (inactive). For the same molecule, the GI50 (HCT-116) was 77.3 µM (inactive), the GI50 (LXFL 529) was 72.8 µM (inactive) and the GI50 (M19-MEL) was > 100 µM (inactive). For the same molecule, the GI50 (SF-295) was > 100 µM (inactive), the GI50 (M14) was > 100 µM (inactive) and the GI50 (XF498) was 28.1 µM (inactive). For the same molecule, the GI50 (SK-OV-3) was 53.1 µM (inactive), the GI50 (LOX IMVI) was > 100 µM (inactive) and the GI50 (OVCAR-4) was > 100 µM (inactive). The GI50 (K562) was 51.2 µM (inactive), the GI50 (UO-31) was 43.6 µM (inactive) and the GI50 (RXF 393) was 25.7 µM (inactive). For the same molecule, the GI50 (SNB-78) was 46 µM (inactive), the GI50 (CCRF-CEM) was 23.6 µM (inactive) and the GI50 (HL-60) was 20.1 µM (inactive). The GI50 (EKVX) was 59.4 µM (inactive), the GI50 (MOLT-4) was 62.7 µM (inactive) and the GI50 (RXF 631) was > 100 µM (inactive). The GI50 (DMS-114) was 44.6 µM (inactive), the GI50 (TK-10) was > 100 µM (inactive) and the GI50 (KM-20L2) was > 100 µM (inactive). For the same molecule, the GI50 (UACC-257) was 50.7 µM (inactive), the GI50 (ACHN) was 48.9 µM (inactive) and the GI50 (786-0) was > 100 µM (inactive). For the same molecule, the GI50 (HOP-92) was 32.3 µM (inactive), the GI50 (DLD-1) was 70.1 µM (inactive) and the GI50 (SK-MEL-5) was > 100 µM (inactive). For the same molecule, the GI50 (CAKI-1) was 54.8 µM (inactive), the GI50 (SF-539) was > 100 µM (inactive) and the GI50 (KM12) was 56.5 µM (inactive). For the same molecule, the GI50 (RPMI-8226) was 60.8 µM (inactive), the GI50 (HCT-15) was 87.7 µM and the GI50 (SF-268) was 81.7 µM (inactive).

In the case of COC(=O)C1=C(O)c2cc(OC)c(OC)c(OC)c2[C@H](c2cc(OC)c(OC)c(OC)c2)C1C(=O)OC (some centres not stated), the GI50 (SN12C) was 50.8 µM (inactive), the GI50 (A549) was 49.8 µM (inactive) and the GI50 (OVCAR-8) was 36.4 µM (inactive). For the same molecule, the GI50 (HOP-62) was 59.8 µM (inactive), the GI50 (SK-MEL-28) was 21.8 µM (inactive) and the GI50 (IGROV-1) was 36.2 µM (inactive). The GI50 (NCI-H23) was 31.2 µM (inactive), the GI50 (SW-620) was 29 µM (inactive) and the GI50 (A498) was 30.1 µM (inactive). The GI50 (HT-29) was 22.8 µM (inactive), the GI50 (NCI-H226) was 49.3 µM (inactive) and the GI50 (NCI-H522) was 13.5 µM (inactive). For the same molecule, the GI50 (NCI-H460) was 7.18 µM (inactive), the GI50 (SNB-19) was 38.3 µM (inactive) and the GI50 (SNB-75) was 38.7 µM (inactive). For the same molecule, the GI50 (UACC-62) was 14 µM (inactive), the GI50 (DMS-273) was 15.8 µM (inactive) and the GI50 (HCC 2998) was 27.6 µM (inactive). For the same molecule, the GI50 (COLO 205) was 15.8 µM (inactive), the GI50 (OVCAR-3) was 22.9 µM (inactive) and the GI50 (OVCAR-5) was > 100 µM (inactive). The GI50 (Malme-3M) was 49.3 µM (inactive), the GI50 (U-251) was 36.5 µM (inactive) and the GI50 (HCT-116) was 37.6 µM (inactive). For the same molecule, the GI50 (LXFL 529) was 31.1 µM (inactive), the GI50 (SF-295) was 13.6 µM (inactive) and the GI50 (M14) was 26 µM (inactive). For the same molecule, the GI50 (XF498) was 51.8 µM (inactive), the GI50 (SK-OV-3) was 35 µM (inactive) and the GI50 (LOX IMVI) was 41.1 µM (inactive). For the same molecule, the GI50 (OVCAR-4) was 32.6 µM (inactive), the GI50 (K562) was 24.5 µM (inactive) and the GI50 (UO-31) was 41.9 µM (inactive). For the same molecule, the GI50 (RXF 393) was 20.7 µM (inactive), the GI50 (SNB-78) was 32.1 µM (inactive) and the GI50 (CCRF-CEM) was 32.8 µM (inactive). The GI50 (HL-60) was 16.8 µM (inactive), the GI50 (EKVX) was 55.5 µM (inactive) and the GI50 (MOLT-4) was 22.2 µM (inactive). For the same molecule, the GI50 (RXF 631) was 41.7 µM (inactive), the GI50 (DMS-114) was 30.6 µM (inactive) and the GI50 (TK-10) was > 100 µM (inactive). The GI50 (KM-20L2) was 18.2 µM (inactive), the GI50 (UACC-257) was 44.4 µM (inactive) and the GI50 (ACHN) was 46.8 µM (inactive). The GI50 (786-0) was 34 µM (inactive), the GI50 (HOP-92) was 9.89 µM (inactive) and the GI50 (DLD-1) was 45.1 µM (inactive). For the same molecule, the GI50 (SK-MEL-5) was 12.3 µM (inactive), the GI50 (CAKI-1) was > 100 µM (inactive) and the GI50 (SF-539) was 14.2 µM (inactive). For the same molecule, the GI50 (KM12) was 21.9 µM (inactive), the GI50 (RPMI-8226) was 28.2 µM (inactive) and the GI50 (HCT-15) was 28.8 µM. For the same molecule, the GI50 (SF-268) was 42.1 µM (inactive).

— ChEMBL document CHEMBL1201862, “PubChem BioAssay data set” (2004)
